Results from patent US5079243A, “Benzazepines” (Novo Nordisk A/S, priority 1989, dated 1992).

Tested on: stereotyped gnawing behaviour in mice induced by methylphenidate
Test: methylphenidate induced gnawing test in mice
Format: in vivo
Settings: Mus musculus

Row | SMILES | ED50
1 | COCOc1cc2c(cc1Cl)CCN(C)CC2c1cccc2ccoc12 (single isomer, unassigned; (+)) [Example 1, (+)-5-(7-benzofuranyl)-8-chloro-7-methoxymethyloxy-3-methyl-2,3,4,5-tetrahydro-1H-3-benzazepine] | 2 mg/kg
2 | COCOc1cc2c(cc1Cl)CCN(C)CC2c1cccc2c1OCC2 (single isomer, unassigned; (+)) [Example 2, (+)-8-chloro-5-(2,3-dihydro-benzofuran-7-yl)-7-methoxy-methyloxy-3-methyl-2,3,4,5-tetrahydro-1H-3-benzazepine] | 5.4 mg/kg
